Measured values taken from BindingDB's records for doi:10.1021/jm970101g (Abbott Laboratories, 1997).

Biological target: Endothelin-1 receptor (Rattus norvegicus) (UniProt P26684)
Assay: Ability to block the ET-1-induced hydrolysis of inositol phosphate in Endothelin A receptor of MMQ cells.

Sequence of Endothelin-1 receptor (Rattus norvegicus) (P26684 whole entry, looked up): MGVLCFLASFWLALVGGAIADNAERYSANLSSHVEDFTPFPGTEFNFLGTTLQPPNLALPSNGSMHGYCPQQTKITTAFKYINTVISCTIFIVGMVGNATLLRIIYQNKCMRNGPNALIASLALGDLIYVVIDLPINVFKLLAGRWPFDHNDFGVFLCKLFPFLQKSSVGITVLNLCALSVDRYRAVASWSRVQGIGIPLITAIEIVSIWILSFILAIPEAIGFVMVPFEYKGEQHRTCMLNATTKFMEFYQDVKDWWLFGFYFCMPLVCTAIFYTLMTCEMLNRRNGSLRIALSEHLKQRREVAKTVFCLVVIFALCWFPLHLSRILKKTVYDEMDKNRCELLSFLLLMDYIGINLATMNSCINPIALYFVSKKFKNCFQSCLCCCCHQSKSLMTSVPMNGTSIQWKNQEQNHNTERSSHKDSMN

IC50: 0.55 nM
SMILES: CCCN(CCN1C[C@H](c2ccc3c(c2)OCO3)[C@@H](C(=O)O)[C@@H]1c1ccc(OC)c(F)c1)S(=O)(=O)CCCCl [(2R,3R,4S)-4-Benzo[1,3]dioxol-5-yl-1-{2-[(3-chloro-propane-1-sulfonyl)-propyl-amino]-ethyl}-2-(3-fluoro-4-methoxy-phenyl)-pyrrolidine-3-carboxylic acid]
